What all share (type): cell-based
Assay [1] relates to influenza virus protein hemagglutinin 0 (HA0).
Assay [2] concerns serine proteases (TMPRSS4, TMPRSS11D, TMPRSS2, and DESC1). The experiment in a line: mRNA levels of serine proteases in human lung airway chips. The note with it: 10 μM versus vehicle.
Assay [3] shares this test system. Nature of the assay: Protein levels of serine proteases in human lung airway chips. The note with it: 10 μM versus vehicle. An excerpt: Protein levels of chips treated with nafamostat mesylate are relative to chips not treated with nafamostat mesylate.
The test system of a further assay is influenza virus.

The structures appear in SMILES notation. Where a name gives a salt, the structure may show the parent alone.

Take `N=C(N)c1ccc2cc(OC(=O)c3ccc(N=C(N)N)cc3)ccc2c1` [nafamostat mesylate]: the “effect on the cleavage of HA0” value in assay [1] is reported as “efficiently block”. The “effect on mRNA expression of serine proteases” value in assay [2] was “no effect”. In assay [3], the “effect on protein expression of serine proteases” value is on record as “no effect”.

With `CCOC(=O)C1=C[C@@H](OC(CC)CC)[C@H](NC(C)=O)[C@@H](N)C1` [oseltamivir], the therapeutic window result in the assay on influenza virus was “approximately 48 hours”.

Values taken from patent US20220193021A1 (priority 2019, published 2022).
